Data reported in patent US6432976B1, “8-aza-bicyclo[3.2.1]octane NMDA/NR2B antagonists” (Merck & Co., Inc., priority 1999, dated 2002).
Counter-ions that a name gives are not always drawn.

SMILES | melting point
OC1C(Cc2ccccc2)CC2CCC1N2Cc1nc2ccccc2[nH]1 (racemic) | 208 to 209 °C
COC1C(Cc2ccccc2)CC2CCC1N2Cc1nc2ccccc2[nH]1 (racemic) | 172 to 173 °C
OC1C(Cc2ccccc2)CC2CCC1N2Cc1nc2ccccc2[nH]1 (racemic) (as salt: hydrochloride) | 234 to 236 °C
COC1C(Cc2ccccc2)CC2CCC1N2Cc1nc2ccccc2[nH]1 (racemic) (as salt: hydrochloride) | 222 to 226 °C
